Where “and” joins values, the source holds several entries; their conditions need not be identical. Identical values can stand only once.
Experiments:
[1] = target: T1, Trap-1 (Homo sapiens, UniProt Q12931); assay: biochemical
T1 sequence (Q12931 60-704): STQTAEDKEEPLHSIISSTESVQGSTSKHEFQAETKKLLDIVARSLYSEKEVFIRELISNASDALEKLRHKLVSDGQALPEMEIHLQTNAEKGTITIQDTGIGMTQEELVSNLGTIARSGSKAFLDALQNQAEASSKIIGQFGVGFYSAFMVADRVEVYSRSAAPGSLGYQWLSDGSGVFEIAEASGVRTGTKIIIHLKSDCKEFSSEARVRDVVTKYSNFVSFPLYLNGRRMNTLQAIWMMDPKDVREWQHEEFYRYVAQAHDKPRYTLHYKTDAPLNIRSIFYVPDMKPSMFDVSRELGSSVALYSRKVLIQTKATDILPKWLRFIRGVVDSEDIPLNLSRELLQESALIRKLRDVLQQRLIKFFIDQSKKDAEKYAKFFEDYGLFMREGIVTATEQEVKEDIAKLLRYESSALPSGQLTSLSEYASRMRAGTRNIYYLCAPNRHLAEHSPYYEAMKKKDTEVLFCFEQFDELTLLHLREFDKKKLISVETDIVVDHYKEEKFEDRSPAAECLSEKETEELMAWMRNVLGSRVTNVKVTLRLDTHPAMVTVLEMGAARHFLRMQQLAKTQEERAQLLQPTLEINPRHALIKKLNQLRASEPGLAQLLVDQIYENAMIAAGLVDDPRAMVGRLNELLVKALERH

[2] = target: Hsp90β (Homo sapiens, UniProt P08238)
Chain of Hsp90β (P08238 whole entry): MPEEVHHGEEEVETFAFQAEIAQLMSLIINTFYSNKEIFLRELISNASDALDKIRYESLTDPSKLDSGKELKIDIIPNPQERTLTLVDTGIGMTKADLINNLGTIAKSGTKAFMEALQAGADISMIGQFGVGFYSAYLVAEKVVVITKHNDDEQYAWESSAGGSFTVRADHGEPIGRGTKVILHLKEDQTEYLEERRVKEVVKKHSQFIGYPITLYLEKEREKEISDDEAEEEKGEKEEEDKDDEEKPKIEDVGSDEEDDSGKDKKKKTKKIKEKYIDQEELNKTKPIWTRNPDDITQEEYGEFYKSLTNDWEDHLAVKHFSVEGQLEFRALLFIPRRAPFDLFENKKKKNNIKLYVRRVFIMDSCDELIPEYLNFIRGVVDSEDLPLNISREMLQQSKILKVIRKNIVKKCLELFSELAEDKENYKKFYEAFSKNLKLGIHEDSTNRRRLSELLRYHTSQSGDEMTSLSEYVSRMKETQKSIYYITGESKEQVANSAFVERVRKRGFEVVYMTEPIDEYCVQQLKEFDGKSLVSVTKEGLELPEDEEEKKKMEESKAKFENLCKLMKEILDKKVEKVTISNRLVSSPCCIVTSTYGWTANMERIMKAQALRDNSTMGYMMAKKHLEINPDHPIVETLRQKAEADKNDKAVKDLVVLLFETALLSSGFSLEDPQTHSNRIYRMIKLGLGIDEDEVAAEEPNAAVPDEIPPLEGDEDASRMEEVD

[3] = target: Hsp90α (Homo sapiens, UniProt P07900); assay: biochemical; conditions: FP competition, 6 nM Cy3B-GM, 10 nM protein, 4° C. for 24 h
[4] = target: Grp94 (Canis lupus familiaris, UniProt P41148); conditions: read-out: Grp94; FP competition, 6 nM Cy3B-GM, 10 nM protein, 4° C. for 24 h
Chain of Grp94 (P41148 with tags, fused parts or gaps DELINS287-327GGGG): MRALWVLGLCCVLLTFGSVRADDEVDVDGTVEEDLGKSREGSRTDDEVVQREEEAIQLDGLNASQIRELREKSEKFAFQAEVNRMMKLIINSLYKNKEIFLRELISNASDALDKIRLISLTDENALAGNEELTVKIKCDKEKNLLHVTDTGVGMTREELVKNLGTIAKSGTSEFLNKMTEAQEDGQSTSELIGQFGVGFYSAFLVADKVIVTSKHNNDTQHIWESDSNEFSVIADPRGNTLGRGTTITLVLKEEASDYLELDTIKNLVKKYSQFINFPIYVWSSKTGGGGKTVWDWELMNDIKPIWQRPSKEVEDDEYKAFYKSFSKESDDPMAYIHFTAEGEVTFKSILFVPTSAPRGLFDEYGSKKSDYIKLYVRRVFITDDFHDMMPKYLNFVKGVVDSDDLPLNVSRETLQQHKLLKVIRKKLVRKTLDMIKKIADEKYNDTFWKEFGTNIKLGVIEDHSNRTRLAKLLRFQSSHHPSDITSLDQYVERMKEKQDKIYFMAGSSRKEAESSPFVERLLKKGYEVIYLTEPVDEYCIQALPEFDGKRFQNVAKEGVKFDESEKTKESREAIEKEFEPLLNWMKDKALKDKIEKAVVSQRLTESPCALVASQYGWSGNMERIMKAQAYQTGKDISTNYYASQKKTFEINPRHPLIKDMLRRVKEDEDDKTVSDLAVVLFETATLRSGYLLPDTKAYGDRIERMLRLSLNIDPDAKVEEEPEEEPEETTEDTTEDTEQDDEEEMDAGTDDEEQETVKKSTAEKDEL

Row | Compound | IC50 [1] [µM] | IC50 [2] [µM] | IC50 [3] | IC50 [4] [µM]
1 | C#CCCn1c(Sc2cc(Cl)cc(Cl)c2)nc2c(N)ncnc21 [PDP-I-14-N9, 9-(But-3-yn-1-yl)-8-((3,5-dichlorophenyl)thio)-9H-purin-6-amine] | > 100 | > 100 | > 100 µM | 0.27 ± 0.02
2 | Nc1ncn(CCCCC(F)(F)F)c2nc(Sc3cc(Cl)cc(Cl)c3)nc1-2 [PDP-109B, 8-((3,5-Dichlorophenyl)thio)-3-(5,5,5-trifluoropentyl)-3H-purin-6-amine] | > 100 | > 100 | > 100 µM | > 5
3 | C#CCCCn1c(Sc2ccc(Cl)c(Cl)c2)nc2c(N)ncnc21 [PDP-I-25-N9] | 2.35 ± 0.09 | 10.2 ± 1.62 | 4.82 ± 1.05 µM | 0.42 ± 0.04
4 | C#CCCCn1c(Sc2cc(Br)cc(Br)c2)nc2c(N)ncnc21 [PDP-I-59-N9] | > 100 | > 100 | > 100 µM | 0.26 ± 0.07
5 | CC#CCn1c(Sc2cc(Cl)cc(Cl)c2)nc2c(N)ncnc21 [PDP-102A, 9-(But-2-yn-1-yl)-8-((3,5-dichlorophenyl)thio)-9H-purin-6-amine] | > 50 | > 100 | > 100 µM | > 5
6 | CC(C)(O)CNCCn1c(Sc2ccc(Cl)cc2Cl)nc2c(N)ncnc21 [HJP-V-85, 1-((2-(6-Amino-8-((2,4-dichlorophenyl)thio)-9H-purin-9-yl)ethyl)amino)-2-methylpropan-2-ol] | 2.6 | – | 9.2 µM | 2.3
7 | C#CCCCn1c(Sc2ccc(Br)cn2)nc2c(N)ncnc21 [PDP-I-60-N9] | 2.18 ± 0.55 | 2.82 | 2.18 ± 0.1 µM | 0.53 ± 0.03
8 | C#CCCCn1c(Sc2cc(Br)cc(OC(F)(F)F)c2)nc2c(N)ncnc21 [PDP-120A, 8-((3-Bromo-5-(trifluoromethoxy)phenyl)thio)-9-(pent-4-yn-1-yl)-9H-purin-6-amine] | 1.87 | > 100 | > 100 µM | 1.21
9 | Nc1ncnc2c1nc(Sc1cc(Cl)cc(Cl)c1)n2CC1CCCCC1 [PDP-110A, 9-(Cyclohexylmethyl)-8-((3,5-dichlorophenyl)thio)-9H-purin-6-amine] | > 100 | > 100 | > 100 µM | 4.34 ± 0.75
10 | N#CCCCn1c(Sc2cc(Cl)cc(Cl)c2)nc2c(N)ncnc21 [PDP-93A, 4-(6-Amino-8-((3,5-dichlorophenyl)thio)-9H-purin-9-yl)butanenitrile] | 4.47 ± 0.31 | > 100 | > 50 µM | 0.45 ± 0.03
11 | Nc1ncnc2c1nc(Sc1cc(Cl)cc(Cl)c1)n2CCCCC(F)(F)F [PDP-109A, 8-((3,5-Dichlorophenyl)thio)-9-(5,5,5-trifluoropentyl)-9H-purin-6-amine] | > 100 | > 100 | > 100 µM | 1.11 ± 0.28
12 | C#CCCCn1c(Sc2ccc(Br)cc2CC)nc2c(N)ncnc21 [PDP-I-54-N9] | 4.9 ± 0.27 | > 50 | 13.9 µM and 14 µM | 0.66 ± 0.1
13 | C#CCCCn1cnc(N)c2nc(Sc3ccc(Cl)c(Cl)c3Cl)nc1-2 [PDP-126B] | 34.1 | > 100 | > 100 µM | 8.7
14 | C#CCCCn1c(Sc2ccc(Cl)cc2C(F)(F)F)nc2c(N)ncnc21 [PDP-117A] | 34.4 | > 100 | > 100 µM | 1.58
15 | Nc1ncnc2c1nc(Sc1cc(Cl)cc(Cl)c1)n2CCc1ccccc1 [PDP-127, 8-((3,5-Dichlorophenyl)thio)-9-phenethyl-9H-purin-6-amine] | > 100 | > 100 | > 100 µM | > 2.5
16 | C#CCCCn1c(Sc2cccc3ccccc23)nc2c(N)ncnc21 [PDP-I-16-N9] | > 100 | > 100 | > 100 µM | 2.16 ± 0.21
17 | CCC[C@H](C)n1c(Cc2cc(OC)c(OC)c(OC)c2)nc2c(N)ncnc21 [PU-34] | 227 ± 6.6 | > 250 | > 500 µM | 91.3 ± 2.16
18 | CC#CCn1cnc(N)c2nc(Sc3cc(Cl)cc(Cl)c3)nc1-2 [PDP-102B, 3-(But-2-yn-1-yl)-8-((3,5-dichlorophenyl)thio)-3H-purin-6-amine] | > 25 | > 100 | > 100 µM | 10.3 ± 0.82
